ChEMBL document CHEMBL1134637, “Fluorescent tricyclic analogues of acyclovir and ganciclovir. A structure-antiviral activity study” (2001)
In brackets after ≈: the same amount, converted by molar mass.

What was measured:
Format in all cases: functional
[1] = Minimal cytotoxic concentration (MCC) to cause a microscopically detectable change in normal cell morphology
Human alphaherpesvirus 1 [2] = assay: Minimal inhibitory concentration to reduce virus-induced cytopathicity against F strain of human Herpes Simplex Virus-1 (HSV-1)
[3] = tested on: Vesicular stomatitis virus; assay: Minimal inhibitory concentration to reduce virus-induced cytopathicity against VSV
Human alphaherpesvirus 1 [4] = assay: Minimal inhibitory concentration to reduce virus-induced cytopathicity against KOS strain of human Herpes Simplex Virus -1
Human alphaherpesvirus 2 [5] = assay: Minimal inhibitory concentration to reduce virus-induced cytopathicity against 196 strain of human Herpes Simplex Virus-2
Human alphaherpesvirus 1 [6] = assay: Minimal inhibitory concentration to reduce virus-induced cytopathicity against TK-/TK+ HSV-1 of VMW 837
Human alphaherpesvirus 1 [7] = assay: Minimal inhibitory concentration to reduce virus-induced cytopathicity against Thymidine kinase deficient(TK-) HSV-1 of Acyclovir
Human alphaherpesvirus 1 [8] = assay: Minimal inhibitory concentration to reduce virus-induced cytopathicity against McIntyre strain of human Herpes Simplex Virus-1
Vaccinia virus = assay: Minimal inhibitory concentration to reduce virus-induced cytopathicity against VV; conditions: Orthopoxvirus vaccinia
Human alphaherpesvirus 2 [9] = assay: Minimal inhibitory concentration to reduce virus-induced cytopathicity against G strain of human Herpes Simplex Virus-2
Human alphaherpesvirus 2 [10] = assay: Minimal inhibitory concentration to reduce virus-induced cytopathicity against Lyons strain of human Herpes Simplex Virus-2
[11] = Human alphaherpesvirus 1, read-out: MIC
[12] = Human alphaherpesvirus 2, read-out: MIC

SMILES | MCC [1] | MIC (Human alphaherpesvirus 1 [2]; [11]) | MIC [3] | MIC (Human alphaherpesvirus 1 [4]) | MIC (Human alphaherpesvirus 2 [5]) | MIC (Human alphaherpesvirus 1 [6]) | MIC (Human alphaherpesvirus 1 [7]) | MIC (Human alphaherpesvirus 1 [8]) | MIC (Vaccinia virus) | MIC (Human alphaherpesvirus 2 [9]; [12]) | MIC (Human alphaherpesvirus 2 [10]) | MIC (Human alphaherpesvirus 1 [2]) | MIC (Human alphaherpesvirus 2 [9])
OCCOCn1cnc2c(O)n3cc(-c4ccc5ccccc5c4)nc3nc21 | > 80 µg/mL | 9.6 µg/mL (≈ 25.6 µM) | > 16 µg/mL | 5.8 µg/mL (≈ 15.5 µM) | 16 µg/mL (≈ 42.6 µM) | 12.8 µg/mL (≈ 34.1 µM) | 16 µg/mL (≈ 42.6 µM) | 9.6 µg/mL (≈ 25.6 µM) | > 16 µg/mL | 6.4 µg/mL (≈ 17 µM) | 9.6 µg/mL (≈ 25.6 µM) |  | 
COc1cccc(-c2cn3c(O)c4ncn(COCCO)c4nc3n2)c1 | > 400 µg/mL | 1.92 µg/mL (≈ 5.4 µM) | 240 µg/mL (≈ 675 µM) | 1.92 µg/mL (≈ 5.4 µM) | 3.2 µg/mL (≈ 9.01 µM) | 9.6 µg/mL (≈ 27 µM) | > 80 µg/mL | 0.64 µg/mL (≈ 1.8 µM) | > 400 µg/mL | 1.92 µg/mL (≈ 5.4 µM) | 3.2 µg/mL (≈ 9.01 µM) |  | 
COc1ccc(-c2cn3c(O)c4ncn(COCCO)c4nc3n2)cc1 | 150 µg/mL | 0.07 µg/mL (≈ 0.197 µM) | > 40 µg/mL | 0.1 µg/mL (≈ 0.281 µM) | 0.2 µg/mL (≈ 0.563 µM) | 21 µg/mL (≈ 59.1 µM) | 5.9 µg/mL (≈ 16.6 µM) | 0.03 µg/mL (≈ 0.0844 µM) | > 40 µg/mL | 0.15 µg/mL (≈ 0.422 µM) | 0.2 µg/mL (≈ 0.563 µM) |  | 
OCCOCn1cnc2c(O)n3c(-c4ccccc4)c(-c4ccccc4)nc3nc21 | > 16 µg/mL | 9.6 µg/mL (≈ 23.9 µM) | > 16 µg/mL | 1.92 µg/mL (≈ 4.78 µM) | 9.6 µg/mL (≈ 23.9 µM) | > 16 µg/mL | > 16 µg/mL | 9.6 µg/mL (≈ 23.9 µM) | > 16 µg/mL | 1.92 µg/mL (≈ 4.78 µM) | 16 µg/mL (≈ 39.9 µM) |  | 
OCCOCn1cnc2c(O)n3ccnc3nc21 | 400 µg/mL |  |  | 20 µg/mL (≈ 80.2 µM) | 70 µg/mL (≈ 281 µM) |  | 400 µg/mL (≈ 1600 µM) | 20 µg/mL (≈ 80.2 µM) | 400 µg/mL (≈ 1600 µM) | 20 µg/mL (≈ 80.2 µM) | 10 µg/mL (≈ 40.1 µM) | 4 pug ml-1 | 
COc1ccc(-c2cn3c(O)c4ncn(COCCO)c4nc3n2)c(OC)c1 | 80 µg/mL | 1.92 µg/mL (≈ 4.98 µM) | 16 µg/mL (≈ 41.5 µM) | 1.92 µg/mL (≈ 4.98 µM) | 1.92 µg/mL (≈ 4.98 µM) | 1.92 µg/mL (≈ 4.98 µM) | > 16 µg/mL | 1.92 µg/mL (≈ 4.98 µM) | 16 µg/mL (≈ 41.5 µM) | 3.2 µg/mL (≈ 8.3 µM) | 1.92 µg/mL (≈ 4.98 µM) |  | 
OCCOCn1cnc2c(O)n3c(CO)cnc3nc21 | > 16 µg/mL | > 3.2 µg/mL | > 3.2 µg/mL | > 3.2 µg/mL | > 3.2 µg/mL | > 3.2 µg/mL | > 3.2 µg/mL | > 3.2 µg/mL | > 3.2 µg/mL | > 3.2 µg/mL | > 3.2 µg/mL |  | 
O=[N+]([O-])c1ccc(-c2cn3c(O)c4ncn(COCCO)c4nc3n2)cc1 | 80 µg/mL | 16 µg/mL (≈ 43.2 µM) | > 16 µg/mL | 9.6 µg/mL (≈ 25.9 µM) | > 16 µg/mL | > 16 µg/mL | > 16 µg/mL | 16 µg/mL (≈ 43.2 µM) | > 16 µg/mL | 9.6 µg/mL (≈ 25.9 µM) | > 16 µg/mL |  | 
Cc1nc2nc3c(ncn3COCCO[Si](C)(C)C(C)(C)C)c(O)n2c1C(c1ccccc1)(c1ccccc1)c1ccccc1 | 40 µg/mL |  | > 10 µg/mL | > 10 µg/mL |  | > 10 µg/mL | > 10 µg/mL |  | 2 µg/mL (≈ 3.23 µM) | > 10 µg/mL |  |  | 
OCC(CO)OCn1cnc2c(O)n3cc(-c4ccccc4)nc3nc21 | > 175 µg/mL | 0.005 µg/mL (≈ 0.0141 µM) | > 175 µg/mL | 0.02 µg/mL (≈ 0.0563 µM) | 0.02 µg/mL (≈ 0.0563 µM) | 0.5 µg/mL (≈ 1.41 µM) |  | 0.005 µg/mL (≈ 0.0141 µM) | > 90 µg/mL | 0.3 µg/mL (≈ 0.844 µM) | 0.005 µg/mL (≈ 0.0141 µM) |  | 
O=c1c2ncn(COCCO)c2nc2n(Cc3ccccc3)c(-c3ccccc3)cn12 | > 100 µg/mL |  | > 100 µg/mL | > 100 µg/mL |  | > 100 µg/mL | > 100 µg/mL |  | > 100 µg/mL |  |  |  | > 100 µg/mL
Cc1nc2nc3c(ncn3COCCO)c(O)n2c1C(c1ccccc1)(c1ccccc1)c1ccccc1 | 80 µg/mL | > 16 µg/mL | > 16 µg/mL | > 16 µg/mL | > 16 µg/mL | > 16 µg/mL | > 16 µg/mL | > 16 µg/mL | > 16 µg/mL | > 16 µg/mL | > 16 µg/mL |  | 
COc1ccccc1-c1cn2c(O)c3ncn(COCCO)c3nc2n1 | 400 µg/mL | 1.92 µg/mL (≈ 5.4 µM) | > 80 µg/mL | 1.92 µg/mL (≈ 5.4 µM) | 9.6 µg/mL (≈ 27 µM) | 9.6 µg/mL (≈ 27 µM) | > 80 µg/mL | 1.92 µg/mL (≈ 5.4 µM) | > 80 µg/mL | 1.92 µg/mL (≈ 5.4 µM) | 9.6 µg/mL (≈ 27 µM) |  | 
Cc1ccc(-c2cn3c(O)c4ncn(COC(CO)CO)c4nc3n2)cc1 | 80 µg/mL | 0.01 µg/mL (≈ 0.0271 µM) | > 16 µg/mL | 0.02 µg/mL (≈ 0.0541 µM) | 0.13 µg/mL (≈ 0.352 µM) | 0.1 µg/mL (≈ 0.271 µM) | > 16 µg/mL | 0.08 µg/mL (≈ 0.217 µM) | > 16 µg/mL | 0.13 µg/mL (≈ 0.352 µM) | 0.08 µg/mL (≈ 0.217 µM) |  | 
COc1ccc(OC)c(-c2cn3c(O)c4ncn(COCCO)c4nc3n2)c1 | 80 µg/mL | 16 µg/mL (≈ 41.5 µM) | > 16 µg/mL | 9.6 µg/mL (≈ 24.9 µM) | > 16 µg/mL | > 16 µg/mL | > 16 µg/mL | 16 µg/mL (≈ 41.5 µM) | > 16 µg/mL | 9.6 µg/mL (≈ 24.9 µM) | > 16 µg/mL |  | 
